Source: patent publication EP4603105A1, “PHARMACEUTICAL COMPOSITION CONTAINING CYCLIC COMPOUND HAVING SELECTIVE KRAS INHIBITORY EFFECT AGAINST HRAS AND NRAS” (CHUGAI SEIYAKU KABUSHIKI KAISHA, priority 2022, dated 2024)
*1 amine or outer side, *2 acyl side, *3 side chain or, on linkers, in order; H or OH if unused. Where a SMILES comes first, the peptide text is derived from it. Bridges are numbered along the chain shown (N, C = ends). [ ]: non-standard residue; d: D form. The star is where a group is joined. hPhe(3,5-F2-4-CF3) = N[C@@H](CCc1cc(F)c(C(F)(F)F)c(F)c1)C(=O)O; NPrPhe(4-CF3) = CCCN[C@@H](Cc1ccc(C(F)(F)F)cc1)C(=O)O; NMeGly(cPent) = CN[C@H](C(=O)O)C1CCCC1; X3 = CCC[C@](C)(N[*:1])C(=O)[*:2]; NMeD = CN[C@@H](CC(=O)O)C(=O)O; NMeL = CN[C@@H](CC(C)C)C(=O)O; Morpholide = C1CN(*)CCO1; Sar = CNCC(=O)O

Columns and labels:
HRAS wild-type protein = HRAS wild-type protein (Homo sapiens, UniProt P01112); assay: Binding to HRAS by surface plasmon resonance (SPR), KD and KD ratio to KRAS
Method: (§1) Surface plasmon resonance was used to analyze the binding affinity of compounds for KRAS, NRAS, and HRAS. The apparatus used was Biacore 8K, 8K+, or T200 (GE Healthcare), and the running buffer used was HBS (10 mM HEPES-NaOH, 150 mM NaCl, pH 7.4) containing 1 mM DTT, 10 mM MgCl2, 0.01% Tween 20, 10 µM GDP, and 4% DMSO.
(§2) Biotinylated Avi-tag fusion KRAS, NRAS, and HRAS proteins were expressed in E. coli BL21 (DE3) strains, and after cells were homogenized, they were purified using Streptavidin Mutein Matrix and Superdex 75. After purification, GDP-loaded KRAS, NRAS, and HRAS proteins were immobilized on the surface of Sensor Chip CAP (Cytiva) coated with Biotin CAPture Reagent in an immobilization amount of about 100 to 300 RU. Binding of each compound was evaluated by the Single Cycle Kinetics method, and a running buffer or a compound solution was added to the RAS protein non-immobilized surface and the immobilized surface to obtain a binding response. The flow rate was set to 100 µL/min, and in the compound-adding cycle, compound solutions having different concentrations were intermittently added for 75 seconds each, starting from a low concentration. […] In the blank cycle, a running buffer was intermittently added and not the compound solution. The Biotin CAPture Reagent and RAS proteins were immobilized for each cycle, and at the end of each cycle, the sensor chip was regenerated by the regeneration solution appended to the Biotin CAPture Kit (Cytiva). Measurement was carried out at 30°C.
(§3) The resulting sensorgram was subjected to curve fitting based on a 1:1 binding model on Biacore Insight Evaluation Software or T200 Evaluation Software, and thereby the dissociation constant KD of each compound with respect to KRAS, NRAS, and HRAS was determined. […] Blank indicates a compound from which the KD value with respect to NRAS or HRAS was not obtained.

[1] = molecular target: GDP-bound NRAS wild-type protein (Homo sapiens, UniProt P01111); assay: Binding to NRAS by surface plasmon resonance (SPR), KD and KD ratio to KRAS
Method: as §1, §2, §3

[2] = test system: human lung cancer strain NCI-H441; format: cell-based
In short: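 Proliferation was scored by […] measured after the reagent was added to cultures kept at 37°C in 5% carbon dioxide.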

[3] = ratio of KD for HRAS wild-type protein to KD for KRAS
[4] = ratio of KD for GDP-bound NRAS wild-type protein to KD for KRAS
[5] = ratio of the KD value with respect to HRAS wild-type protein to the KD value with respect to KRAS
[6] = ratio of the KD value with respect to GDP-bound NRAS wild-type protein to the KD value with respect to KRAS

Sequence of GDP-bound NRAS wild-type protein (P01111 whole entry): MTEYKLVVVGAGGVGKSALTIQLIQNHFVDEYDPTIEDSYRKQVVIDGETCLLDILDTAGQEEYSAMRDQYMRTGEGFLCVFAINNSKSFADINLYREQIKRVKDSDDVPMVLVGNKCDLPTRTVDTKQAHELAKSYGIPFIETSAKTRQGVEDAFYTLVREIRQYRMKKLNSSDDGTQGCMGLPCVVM
Sequence of HRAS wild-type protein (P01112 whole entry): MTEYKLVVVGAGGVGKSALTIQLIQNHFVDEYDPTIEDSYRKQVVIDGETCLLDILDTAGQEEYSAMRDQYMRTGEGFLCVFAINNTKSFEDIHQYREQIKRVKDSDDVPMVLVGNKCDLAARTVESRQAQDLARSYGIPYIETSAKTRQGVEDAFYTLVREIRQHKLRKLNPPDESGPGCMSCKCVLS

Structure (SMILES)	HRAS /KRAS (HRAS wild-type protein; [3])	NRAS /KRAS [1, 4]	IC50 [2]	HRAS /KRAS (HRAS wild-type protein; ratio of KD value for HRAS wild-type protein to KD value for KRAS (SPR))	NRAS /KRAS ([1]; ratio of KD value for GDP-bound NRAS wild-type protein to KD value for KRAS (SPR))	HRAS /KRAS (HRAS wild-type protein; [5])	NRAS /KRAS [1, 6]
CCC(CC)[C@H]1C(=O)N(C)[C@H](C(=O)N(C)C)CC(=O)N(C)[C@@H](COC)C(=O)N[C@@H]([C@@H](C)CC)C(=O)N(C)CC(=O)N(C)[C@H]2C/C=C\CCN(C2=O)[C@@H](Cc2ccc(C(F)(F)F)cc2)C(=O)N(C)CC(=O)N[C@@H](CCc2ccc(Cl)c(Cl)c2)C(=O)N2CCOC[C@H]2C(=O)NC2(CC(C)(C)C2)C(=O)N1C [PP2941]	A (a compound having 10 or more and less than 20 is denoted as A)	AA (a compound having 20 or more is denoted as AA)	104 nM				
CCO[C@@H]1C[C@H]2C(=O)NC3(CC(F)(F)C3)C(=O)N(C)[C@@H](C3CCCC3)C(=O)N(C)[C@H](C(=O)N(C)C)CC(=O)N(C)[C@@H](CC(C)C)C(=O)N[C@@H]([C@@H](C)CC)C(=O)N(C)CC(=O)N(C)[C@H]3C/C=C\CCN(C3=O)[C@@H](Cc3ccc(C(F)(F)F)cc3)C(=O)N(C)CC(=O)N[C@@H](CCc3cc(F)c(C(F)(F)F)c(F)c3)C(=O)N2C1 [PP1741]			2.3 nM	B (a compound having 3 or more and less than 10 is denoted as B)	A (a compound having 10 or more and less than 20 is denoted as A)		
CCO[C@@H]1C[C@H]2C(=O)NC3(CCC3)C(=O)N(C)[C@@H](C3CCCC3)C(=O)N(C)[C@H](C(=O)N3CCOCC3)CC(=O)N(C)[C@@H](CC(C)C)C(=O)N[C@@H]([C@@H](C)CC)C(=O)N(C)CC(=O)N(C)[C@H]3CCCCCN(C3=O)[C@@H](Cc3ccc4sccc4c3)C(=O)N(C)CC(=O)N[C@@H](CCc3cc(F)c(C(F)(F)F)c(F)c3)C(=O)N2C1 [PP0920]	B (a compound having 3 or more and less than 10 is denoted as B)	B (a compound having 3 or more and less than 10 is denoted as B)	75.5 nM				
CCO[C@@H]1C[C@H]2C(=O)NC3(CCC3)C(=O)N(C)[C@@H](C3CCCC3)C(=O)N(C)[C@H](C(=O)N(C)C)CC(=O)N(C)[C@@H](CC3CCCCC3)C(=O)N[C@@H]([C@@H](C)CC)C(=O)N(C)CC(=O)N(C)[C@H]3CCCCN(C3=O)[C@@H](Cc3ccc(C(F)(F)F)cc3)C(=O)N(C)CC(=O)N[C@@H](CCc3cc(F)c(C(F)(F)F)c(F)c3)C(=O)N2C1 [PP0701]			3.8 nM			B (a compound having 3 or more and less than 10 is denoted as B)	C (A compound having a KD ratio of 0.1 or more and less than 3 is denoted as C)
CCCN1C(=O)CN(C)C(=O)CN(C)C(=O)[C@H]([C@@H](C)CC)NC(=O)[C@H](CC(C)C)N(C)C(=O)C[C@@H](C(=O)N2CCOCC2)N(C)C(=O)[C@H](C2CCCC2)N(C)C(=O)[C@](C)(CCC)NC(=O)[C@@H]2CCCN2C(=O)[C@H](CCc2cc(F)c(C(F)(F)F)c(F)c2)NC(=O)CN(C)C(=O)[C@@H]1Cc1ccc(C(F)(F)F)cc1 [PP0758] ([NMeL]I[Sar][Sar][NPrPhe(4-CF3)][Sar][hPhe(3,5-F2-4-CF3)]P[X3][NMeGly(cPent)][NMeD]-Morpholide; lactam N-11)			153 nM			C (A compound having a KD ratio of 0.1 or more and less than 3 is denoted as C)	B (a compound having 3 or more and less than 10 is denoted as B)
CCO[C@@H]1C[C@H]2C(=O)NC3(CCC3)C(=O)N(C)[C@@H](C3CCCC3)C(=O)N(C)[C@H](C(=O)N(C)C)CC(=O)N(C)[C@@H](CC)C(=O)N[C@@H]([C@@H](C)CC)C(=O)N(C)CC(=O)N(C)[C@H]3CC=C(C)CN(C3=O)[C@@H](Cc3ccc(C(F)(F)F)cc3)C(=O)N(C)CC(=O)N[C@@H](CCc3cc(F)c(C(F)(F)F)c(F)c3)C(=O)N2C1 [PP0827]	C (A compound having a KD ratio of 0.1 or more and less than 3 is denoted as C)	C (A compound having a KD ratio of 0.1 or more and less than 3 is denoted as C)	15.7 nM				
CC[C@H](C)[C@@H]1NC(=O)[C@H](CC(C)C)N(C)C(=O)C[C@@H](C(=O)N(C)C)N(C)C(=O)[C@H](C2CCCC2)N(C)C(=O)C2(CCCC2)NC(=O)[C@@H]2CCCN2C(=O)[C@H](CCc2ccc(C(F)(F)F)c(Cl)c2)NC(=O)CN(C)C(=O)[C@H](Cc2ccc(C)cc2)N2CC=CCOC[C@@H](C2=O)N(C)C(=O)CN(C)C1=O [PP0627]			98.3 nM			C (A compound having a KD ratio of 0.1 or more and less than 3 is denoted as C)	C (A compound having a KD ratio of 0.1 or more and less than 3 is denoted as C)
